Patent US12624017B2, “Salt form of isoquinolinone type compound as rock inhibitor and preparation method therefor” (GUANGZHOU OCUSUN OPHTHALMIC BIOTECHNOLOGY CO., LTD., priority 2020, dated 2026)

Assays:
[1] = Hygroscopicity research by dynamic vapor sorption (DVS); format: physicochemical; conditions: 25° C. and 80% RH
Method: Dynamic Vapor Sorption (DVS) Method
Instrument model: SMS DVS intrinsic dynamic vapor sorption instrument
A dynamic water sorption experiment consists of adsorption and desorption. It is generally believed that at a set relative humidity, the adsorption or desorption of the sample to moisture at this relative humidity is considered to have reached equilibrium when the sample weight reaches dm/dt≤0.01%.
Sample testing temperature: T=25° C.
Equilibrium time: dm/dt: 0.01%/min
Relative humidity variation range: 0%-95%-0%; RH (%)
Test humidity change at each step: 5%
The evaluation of hygroscopicity is classified as follows:
SMS DVS intrinsic dynamic vapor sorption instrument
10 to 15 mg of the crystal form B of the compound of formula (II) was put in a DVS sample tray for testing.

[2] = Solid stability research (crystal form stability on storage); format: physicochemical; conditions: 40° C./75% RH 6 months; 25° C./60% RH 12 months
Method: The crystal form B of the compound of formula (II) was placed at 40° C./75% RH (sealed with a double-layer LDPE bag and further heat-sealed with an aluminum foil bag) for 6 months, and placed at 25° C./60% RH (sealed with a double-layer LDPE bag and further heat-sealed with an aluminum foil bag) for 12 months, respectively. The crystal form was tested individually at each sampling point to determine the crystal form stability of the sample.

For `Cc1ccc(C(=O)OCn2cc(C)c3c(S(=O)(=O)N4CC[C@H](N)C4)cccc3c2=O)c(C)c1`, the Classification of hygroscopicity [1] was “slightly hygroscopic”, the “ΔW, hygroscopic weight gain” value ([1]; DVS) was 0.736% and the “Stability in accelerated and long-term tests” value [2] was “good stability”.
